ChEMBL document CHEMBL3217563, “Second generation analogues of RKA182: synthetic tetraoxanes with outstanding in vitro and in vivo antimalarial activities” (Medchemcomm, 2011)

Assays:
Plasmodium falciparum [1] = assay: Antiplasmodial activity against Plasmodium falciparum 3D7 infected in human erythrocytes assessed as [3H]hypoxanthine incorporation after 48 hrs by betaplate liquid scintillation counting analysis; format: functional, organism-based
Plasmodium falciparum [2] = assay: Antiplasmodial activity against chloroquine-resistant Plasmodium falciparum K1 infected in human erythrocytes assessed as [3H]hypoxanthine incorporation after 48 hrs by betaplate liquid scintillation counting analysis; format: functional, organism-based
[3] = Metabolic stability in human liver microsomes assessed as compound remaining at 10 ug/ml after 10 mins by LC/MS/MS analysis relative to control; format: ADME; conditions: read-out: Stability
[4] = Metabolic stability in human liver microsomes assessed as compound remaining at 10 ug/ml after 30 mins by LC/MS/MS analysis relative to control; format: ADME; conditions: read-out: Stability
[5] = Metabolic stability in human liver microsomes assessed as compound remaining at 10 ug/ml after 60 mins by LC/MS/MS analysis relative to control; format: ADME; conditions: read-out: Stability
Plasmodium berghei = assay: Antimalarial activity against Plasmodium berghei ANKA infected in mouse assessed as suppression of parasitaemia at 30 mg/kg, po administered for 3 days measured on day 4 relative to control; format: functional
Mus musculus = assay: Antimalarial activity against Plasmodium berghei ANKA infected in po dosed mouse assessed as suppression of parasitaemia administered for 3 days measured on day 4 relative to control; format: functional
Plasmodium falciparum [6] = assay: Selectivity ratio of IC50 for Plasmodium falciparum 3D7 infected in human erythrocytes to IC50 for Plasmodium falciparum K1 infected in human erythrocytes; format: functional

CN1CCN(C2CCN(C(=O)CC3CCC4(CC3)OOC3(OO4)C4CC5CC(C4)CC3C5)CC2)CC1 (stereo not drawn)
IC50 (Plasmodium falciparum [1]; Plasmodium falciparum, 3D7): 0.819 nM | IC50 (Plasmodium falciparum [2]): 1.12 nM | remaining at 10 min, 10 ug/ml [3]: 62.9% | remaining at 0.5 h, 10 ug/ml [4]: 40.6% | remaining at 1 h, 10 ug/ml [5]: 39.5%

C1CN(C2CCC3(CC2)OOC2(OO3)C3CC4CC(C3)CC2C4)CCO1 (stereo not drawn)
IC50 (Plasmodium falciparum [1]; Plasmodium falciparum, 3D7): 0.4 nM | IC50 (Plasmodium falciparum [2]): 0.4 nM

C1CCN(C2CCC3(CC2)OOC2(OO3)C3CC4CC(C3)CC2C4)C1 (stereo not drawn)
IC50 (Plasmodium falciparum [1]; Plasmodium falciparum, 3D7): 0.7 nM | IC50 (Plasmodium falciparum [2]): 1 nM | Activity (Plasmodium berghei): 99.8%

FC1(F)CCC(NC2CCC3(CC2)OOC2(OO3)C3CC4CC(C3)CC2C4)CC1 (stereo not drawn)
IC50 (Plasmodium falciparum [1]; Plasmodium falciparum, 3D7): 0.4 nM | IC50 (Plasmodium falciparum [2]): 0.9 nM

C1CC(NC2CCC3(CC2)OOC2(OO3)C3CC4CC(C3)CC2C4)CCO1 (stereo not drawn)
IC50 (Plasmodium falciparum [1]; Plasmodium falciparum, 3D7): 0.7 nM | IC50 (Plasmodium falciparum [2]): 0.4 nM | ED50 (Mus musculus): 2.8 mg/kg | ED90 (Mus musculus): 18 mg/kg

CN1CCC(NC2CCC3(CC2)OOC2(OO3)C3CC4CC(C3)CC2C4)CC1 (stereo not drawn)
IC50 (Plasmodium falciparum [1]; Plasmodium falciparum, 3D7): 0.4 nM | IC50 (Plasmodium falciparum [2]): 1.1 nM | Activity (Plasmodium berghei): 99.2%

O=S1(=O)CC[N+]([O-])(C2CCC3(CC2)OOC2(OO3)C3CC4CC(C3)CC2C4)CC1 (stereo not drawn)
IC50 (Plasmodium falciparum [1]; Plasmodium falciparum, 3D7): 3.7 nM | IC50 (Plasmodium falciparum [2]): 2.5 nM

C1CCN(C2CCC3(CC2)OOC2(OO3)C3CC4CC(C3)CC2C4)CC1 (stereo not drawn)
IC50 (Plasmodium falciparum [1]; Plasmodium falciparum, 3D7): 0.6 nM | IC50 (Plasmodium falciparum [2]): 0.4 nM

FC1(F)CCN(C2CCC3(CC2)OOC2(OO3)C3CC4CC(C3)CC2C4)CC1 (stereo not drawn)
IC50 (Plasmodium falciparum [1]; Plasmodium falciparum, 3D7): 0.6 nM | IC50 (Plasmodium falciparum [2]): 1.3 nM | Activity (Plasmodium berghei): 99.8% | ED50 (Mus musculus): 9.4 mg/kg | ED90 (Mus musculus): 34 mg/kg

C1CCN(C2CCN(C3CCC4(CC3)OOC3(OO4)C4CC5CC(C4)CC3C5)CC2)CC1 (stereo not drawn)
IC50 (Plasmodium falciparum [1]; Plasmodium falciparum, 3D7): 2.4 nM | IC50 (Plasmodium falciparum [2]): 0.2 nM | Ratio IC50 (Plasmodium falciparum [6]): 25 | Activity (Plasmodium berghei): 99.7%

C1CCC(NC2CCC3(CC2)OOC2(OO3)C3CC4CC(C3)CC2C4)CC1 (stereo not drawn)
IC50 (Plasmodium falciparum [1]; Plasmodium falciparum, 3D7): 0.4 nM | IC50 (Plasmodium falciparum [2]): 0.2 nM | Ratio IC50 (Plasmodium falciparum [6]): 25

NC1CCN(C2CCC3(CC2)OOC2(OO3)C3CC4CC(C3)CC2C4)CC1 (stereo not drawn)
IC50 (Plasmodium falciparum [1]): 1.2 nM | IC50 (Plasmodium falciparum [2]): 1.2 nM | remaining at 10 min, 10 ug/ml [3]: 86.7% | remaining at 0.5 h, 10 ug/ml [4]: 73.6% | remaining at 1 h, 10 ug/ml [5]: 57.4%

C1C2CC3CC1CC(C2)C31OOC2(CCC(NC3CC3)CC2)OO1 (stereo not drawn)
IC50 (Plasmodium falciparum [1]; Plasmodium falciparum, 3D7): 1.5 nM | Activity (Plasmodium berghei): 99.7%

CC(C)(C)NC1CCC2(CC1)OOC1(OO2)C2CC3CC(C2)CC1C3 (stereo not drawn)
IC50 (Plasmodium falciparum [1]; Plasmodium falciparum, 3D7): 1.3 nM | Activity (Plasmodium berghei): 98.7%

O=C1CN(C2CCC3(CC2)OOC2(OO3)C3CC4CC(C3)CC2C4)CCN1 (stereo not drawn)
IC50 (Plasmodium falciparum [1]; Plasmodium falciparum, 3D7): 3.5 nM | Activity (Plasmodium berghei): 98.8%

CC(C)(C)OC(=O)NC1CCN(C2CCC3(CC2)OOC2(OO3)C3CC4CC(C3)CC2C4)CC1 (stereo not drawn)
IC50 (Plasmodium falciparum [1]; Plasmodium falciparum, 3D7): 1 nM

C1CC(NC2CCC3(CC2)OOC2(OO3)C3CC4CC(C3)CC2C4)CCO1.Cl (stereo not drawn)
IC50 (Plasmodium falciparum [1]): 1 nM | ED50 (Mus musculus): 2.3 mg/kg | ED90 (Mus musculus): 11 mg/kg

Cc1ccc(S(=O)(=O)O)cc1.NC1CCN(C2CCC3(CC2)OOC2(OO3)C3CC4CC(C3)CC2C4)CC1 (stereo not drawn)
IC50 (Plasmodium falciparum [1]): 2.5 nM | Activity (Plasmodium berghei): 99.9% | ED50 (Mus musculus): 3.7 mg/kg | ED90 (Mus musculus): 10 mg/kg

C[C@H]1[C@H](OC(=O)CCC(=O)O)O[C@@H]2O[C@@]3(C)CC[C@H]4[C@H](C)CC[C@@H]1[C@@]24OO3 [ARTESUNATE]
IC50 (Plasmodium falciparum [2]): 4.9 nM | Activity (Plasmodium berghei): 99.6% | ED50 (Mus musculus): 2.8 mg/kg | ED90 (Mus musculus): 18 mg/kg
